Assay results reported in ChEMBL document CHEMBL1201862, “PubChem BioAssay data set” (2004).
Active and inactive are the calls of the source.

Key:
[1] = target: Protein Wnt-3a (Mus musculus, UniProt P27467); assay: antagonism of Wnt3a pathway luciferase reporter – Wnt-LIGHT cells, luminescence, selectivity assay for Gli-SUFU antagonist project, dose response (AID 651570); format: functional; conditions: read-out: IC50_Mean;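 also: Wnt-LIGHT reporter cells stimulated with conditioned medium from Wnt3a-producing cells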
[2] = target: T1, Cytochrome P450 3A4 (Homo sapiens, UniProt P08684);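 also: CYP3A4 tested as one member of a cytochrome P450 panel screen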
[3] = target: Cytochrome P450 2C9 (Homo sapiens, UniProt P11712)
[4] = test system: Streptococcus sp. 'group A'; assay: Streptococcus pyogenes SK(-)GAS viability under kanamycin – luminescence, BacTiterGlo, confirmation, counter-screen for streptokinase expression inhibitor project, dose response (AID 1900); format: functional, organism-based
[5] = test system: Streptococcus; assay: GAS UMAA2166 growth inhibition – luminescence, BacTiterGlo, counter-screen for streptokinase expression inhibitor project, dose response (AID 1915); format: functional, organism-based;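 also: potency for reduction of bacterial viability or growth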
[6] = target: T2, Streptokinase A (Streptococcus pyogenes serotype M1, UniProt P10520); assay: viability-normalized secreted streptokinase activity reduction – plasminogen activation absorbance, OD405, dose response (AID 1914); format: functional, Streptococcus pyogenes M1 GAS;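 also: secreted streptokinase activity via plasminogen activation per viability signal from cell pellet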
T2 sequence (P10520 whole entry): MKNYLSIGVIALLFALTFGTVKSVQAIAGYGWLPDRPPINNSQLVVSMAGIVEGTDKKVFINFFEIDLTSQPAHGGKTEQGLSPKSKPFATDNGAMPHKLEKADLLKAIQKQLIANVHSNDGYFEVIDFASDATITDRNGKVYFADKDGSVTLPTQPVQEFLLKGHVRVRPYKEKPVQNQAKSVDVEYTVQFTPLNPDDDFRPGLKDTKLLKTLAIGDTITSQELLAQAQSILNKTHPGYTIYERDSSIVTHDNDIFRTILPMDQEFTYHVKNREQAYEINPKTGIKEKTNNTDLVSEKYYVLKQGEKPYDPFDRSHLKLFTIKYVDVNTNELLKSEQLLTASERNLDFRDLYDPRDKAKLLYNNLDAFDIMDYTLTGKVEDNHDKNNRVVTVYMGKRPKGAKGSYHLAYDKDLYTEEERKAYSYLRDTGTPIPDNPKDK

[7] = target: Cytochrome P450 2D6 (Homo sapiens, UniProt P10635);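 also: CYP2D6 member of a cytochrome P450 panel assay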
[8] = target: T3, Cytochrome P450 1A2 (Homo sapiens, UniProt P05177);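 also: PubChem cytochrome P450 panel assay, CYP1A2 panel member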
T3 sequence (P05177 whole entry): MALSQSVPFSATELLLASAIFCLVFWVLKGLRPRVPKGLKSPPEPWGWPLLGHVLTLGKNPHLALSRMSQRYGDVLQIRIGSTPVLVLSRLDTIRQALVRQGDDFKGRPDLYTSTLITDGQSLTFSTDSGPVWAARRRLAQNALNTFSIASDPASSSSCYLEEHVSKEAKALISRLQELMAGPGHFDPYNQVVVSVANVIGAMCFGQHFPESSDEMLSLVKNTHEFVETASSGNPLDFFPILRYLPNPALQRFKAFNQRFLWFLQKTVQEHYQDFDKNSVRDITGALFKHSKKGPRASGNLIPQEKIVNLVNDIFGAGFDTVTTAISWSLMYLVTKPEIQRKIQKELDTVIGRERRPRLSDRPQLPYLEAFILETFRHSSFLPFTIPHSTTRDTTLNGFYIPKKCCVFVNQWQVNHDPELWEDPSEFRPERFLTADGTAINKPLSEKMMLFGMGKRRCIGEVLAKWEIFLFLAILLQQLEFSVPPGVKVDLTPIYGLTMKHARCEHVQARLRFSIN

[9] = target: T4, Alkaline phosphatase, tissue-nonspecific isozyme (Homo sapiens, UniProt P05186); assay: potency against alkaline phosphatase TNAP – biochemical, luminescent, dose response, SAR follow-up (AID 1056)
T4 sequence (P05186 whole entry): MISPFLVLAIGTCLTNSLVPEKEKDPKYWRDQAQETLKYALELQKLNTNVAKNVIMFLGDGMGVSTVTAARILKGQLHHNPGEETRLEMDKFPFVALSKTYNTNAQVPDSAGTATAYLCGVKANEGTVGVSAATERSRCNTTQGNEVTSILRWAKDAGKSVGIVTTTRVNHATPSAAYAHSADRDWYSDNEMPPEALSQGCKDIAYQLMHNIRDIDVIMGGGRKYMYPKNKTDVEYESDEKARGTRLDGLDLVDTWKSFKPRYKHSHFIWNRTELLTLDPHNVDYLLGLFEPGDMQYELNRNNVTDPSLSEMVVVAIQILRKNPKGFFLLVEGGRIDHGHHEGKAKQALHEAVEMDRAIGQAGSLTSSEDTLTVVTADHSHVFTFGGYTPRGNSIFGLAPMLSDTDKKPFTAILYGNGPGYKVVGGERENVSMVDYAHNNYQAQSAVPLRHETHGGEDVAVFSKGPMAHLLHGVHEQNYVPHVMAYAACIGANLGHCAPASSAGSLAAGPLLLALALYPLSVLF

[10] = target: Glyceraldehyde-3-phosphate dehydrogenase (Homo sapiens, UniProt P04406)
[11] = target: T5, fMet-Leu-Phe receptor (Homo sapiens, UniProt P21462); assay: formyl peptide receptor binders – dose response (AID 519); format: functional
T5 sequence (P21462 whole entry): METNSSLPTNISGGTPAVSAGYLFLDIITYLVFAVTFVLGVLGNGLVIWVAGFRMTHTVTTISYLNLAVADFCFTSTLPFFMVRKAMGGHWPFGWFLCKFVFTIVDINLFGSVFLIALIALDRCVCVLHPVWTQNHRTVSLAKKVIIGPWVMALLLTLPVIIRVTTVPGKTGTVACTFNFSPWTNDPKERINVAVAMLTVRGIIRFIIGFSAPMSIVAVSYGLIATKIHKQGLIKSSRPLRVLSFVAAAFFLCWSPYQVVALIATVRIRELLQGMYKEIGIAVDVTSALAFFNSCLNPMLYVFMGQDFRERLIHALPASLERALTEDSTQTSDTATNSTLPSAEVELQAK

[12] = target: Peroxisome proliferator-activated receptor gamma/Nuclear receptor coactivator 1 (Homo sapiens, UniProt P37231); assay: TR-FRET dose response biochemical High Throughput Screening assay for agonists of the steroid receptor coactivator 1 (SRC-1) recruitment by the peroxisome proliferator-activated receptor gamma (PPAR gamma): non-selective agonists. [Related pubchem assays (depositor defined):AID1300, AID1808, AID504735, AID631]; format: protein assay
[13] = target: Peroxisome proliferator-activated receptor gamma/Nuclear receptor coactivator 2 (Homo sapiens, UniProt P37231); assay: (§1) TR-FRET dose response biochemical High Throughput Screening assay for agonists of the steroid receptor coactivator 2 (SRC-2) recruitment by the peroxisome proliferator-activated receptor gamma (PPAR gamma): non-selective agonists. [Related pubchem assays: 1297, 1032 ]; format: functional
[14] = target: Peroxisome proliferator-activated receptor gamma/Nuclear receptor coactivator 3 (Homo sapiens, UniProt P37231); assay: as §1, with “3 (SRC-3)” for “2 (SRC-2)”, “1301 (Confirmation screen.), 1048 (Primary screen.)]” for “1297, 1032 ]”; format: functional
[15] = test system: BJ; assay: BJ-TERT fibroblast viability loss – cell-based, RAS-independent, luminescence, dose response (AID 1933); format: functional; conditions: Homo sapiens
[16] = DRD fibroblast viability loss – cell-based, non-viral oncogenic, luminescence, dose response (AID 1934); format: functional; conditions: Homo sapiens
[17] = test system: BJ; assay: growth inhibition of engineered Ras-driven BJ cells – cell-based, alamar blue fluorescence, cherrypicked samples, dose response (AID 2631); format: functional; conditions: Homo sapiens;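 also: confirmatory dose-response assay in RAS-dependent BJ fibroblasts engineered with TERT, LT and ST, with cytotoxicity read by fluorescence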
[18] = test system: BJ; assay: cells; format: functional, cell-based; conditions: Homo sapiens
[19] = test system: BJ; assay: BJ-TERT-LT-ST fibroblast viability loss – cell-based, RAS-independent, luminescence, dose response (AID 1935); format: functional; conditions: Homo sapiens;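 also: BJ fibroblasts immortalized with TERT plus LT and ST oncogenes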
[20] = cells; format: functional
[21] = target: Cytochrome P450 2C19 (Homo sapiens, UniProt P33261); assay: Cytochrome panel assay with activity outcomes. Panel member name: p450-cyp2c19 Compounds with AC50 equal or less than 10 uM are considered active; format: functional
[22] = target: T1, Cytochrome P450 3A4; remark: listed apart in the source
[23] = target: T6, Mannose-6-phosphate isomerase (Homo sapiens, UniProt P34949); assay: phosphomannose isomerase inhibition – biochemical, fluorescence intensity, confirmation (AID 1535)
T6 sequence (P34949 whole entry): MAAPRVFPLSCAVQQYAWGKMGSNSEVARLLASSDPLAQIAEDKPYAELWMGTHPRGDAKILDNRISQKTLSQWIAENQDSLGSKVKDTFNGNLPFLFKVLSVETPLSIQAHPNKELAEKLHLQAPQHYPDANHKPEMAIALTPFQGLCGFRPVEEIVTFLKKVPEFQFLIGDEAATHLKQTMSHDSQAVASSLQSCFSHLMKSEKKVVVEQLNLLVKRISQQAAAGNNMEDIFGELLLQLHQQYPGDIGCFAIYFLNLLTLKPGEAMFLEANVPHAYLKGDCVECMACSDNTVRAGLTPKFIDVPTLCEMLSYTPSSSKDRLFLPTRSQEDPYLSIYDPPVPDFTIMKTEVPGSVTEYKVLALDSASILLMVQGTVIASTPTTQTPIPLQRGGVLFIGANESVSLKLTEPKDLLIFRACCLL

[24] = target: T7, Phosphomannomutase 2 (Homo sapiens, UniProt O15305); assay: Counter screen SAR assay for PMM2 inhibitors via a fluorescence intensity assay. [Related pubchem assays (depositor defined):AID1545, AID1574]
T7 sequence (O15305 whole entry): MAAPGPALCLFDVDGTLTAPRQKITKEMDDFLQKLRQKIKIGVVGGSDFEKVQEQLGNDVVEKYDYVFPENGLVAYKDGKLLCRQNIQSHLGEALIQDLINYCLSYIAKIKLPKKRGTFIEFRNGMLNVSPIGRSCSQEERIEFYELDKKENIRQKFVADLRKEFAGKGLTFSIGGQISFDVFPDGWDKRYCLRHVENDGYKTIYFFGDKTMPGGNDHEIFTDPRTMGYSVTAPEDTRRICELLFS

Chain of Peroxisome proliferator-activated receptor gamma/Nuclear receptor coactivator 1 (P37231 whole entry): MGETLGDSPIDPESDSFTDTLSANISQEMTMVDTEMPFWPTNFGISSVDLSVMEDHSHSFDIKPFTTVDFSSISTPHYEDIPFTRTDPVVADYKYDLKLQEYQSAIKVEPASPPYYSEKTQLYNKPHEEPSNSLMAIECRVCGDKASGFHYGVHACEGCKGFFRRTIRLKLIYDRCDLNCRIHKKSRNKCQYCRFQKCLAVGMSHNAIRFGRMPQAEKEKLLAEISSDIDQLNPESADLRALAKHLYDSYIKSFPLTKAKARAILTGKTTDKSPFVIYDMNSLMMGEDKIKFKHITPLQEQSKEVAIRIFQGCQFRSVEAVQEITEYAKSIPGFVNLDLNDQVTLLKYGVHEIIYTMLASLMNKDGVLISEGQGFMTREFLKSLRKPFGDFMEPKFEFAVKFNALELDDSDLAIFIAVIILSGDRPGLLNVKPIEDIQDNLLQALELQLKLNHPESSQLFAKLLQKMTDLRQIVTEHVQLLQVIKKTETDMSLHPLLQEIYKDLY
Chain of Peroxisome proliferator-activated receptor gamma/Nuclear receptor coactivator 1 (Q15788 whole entry, further chain): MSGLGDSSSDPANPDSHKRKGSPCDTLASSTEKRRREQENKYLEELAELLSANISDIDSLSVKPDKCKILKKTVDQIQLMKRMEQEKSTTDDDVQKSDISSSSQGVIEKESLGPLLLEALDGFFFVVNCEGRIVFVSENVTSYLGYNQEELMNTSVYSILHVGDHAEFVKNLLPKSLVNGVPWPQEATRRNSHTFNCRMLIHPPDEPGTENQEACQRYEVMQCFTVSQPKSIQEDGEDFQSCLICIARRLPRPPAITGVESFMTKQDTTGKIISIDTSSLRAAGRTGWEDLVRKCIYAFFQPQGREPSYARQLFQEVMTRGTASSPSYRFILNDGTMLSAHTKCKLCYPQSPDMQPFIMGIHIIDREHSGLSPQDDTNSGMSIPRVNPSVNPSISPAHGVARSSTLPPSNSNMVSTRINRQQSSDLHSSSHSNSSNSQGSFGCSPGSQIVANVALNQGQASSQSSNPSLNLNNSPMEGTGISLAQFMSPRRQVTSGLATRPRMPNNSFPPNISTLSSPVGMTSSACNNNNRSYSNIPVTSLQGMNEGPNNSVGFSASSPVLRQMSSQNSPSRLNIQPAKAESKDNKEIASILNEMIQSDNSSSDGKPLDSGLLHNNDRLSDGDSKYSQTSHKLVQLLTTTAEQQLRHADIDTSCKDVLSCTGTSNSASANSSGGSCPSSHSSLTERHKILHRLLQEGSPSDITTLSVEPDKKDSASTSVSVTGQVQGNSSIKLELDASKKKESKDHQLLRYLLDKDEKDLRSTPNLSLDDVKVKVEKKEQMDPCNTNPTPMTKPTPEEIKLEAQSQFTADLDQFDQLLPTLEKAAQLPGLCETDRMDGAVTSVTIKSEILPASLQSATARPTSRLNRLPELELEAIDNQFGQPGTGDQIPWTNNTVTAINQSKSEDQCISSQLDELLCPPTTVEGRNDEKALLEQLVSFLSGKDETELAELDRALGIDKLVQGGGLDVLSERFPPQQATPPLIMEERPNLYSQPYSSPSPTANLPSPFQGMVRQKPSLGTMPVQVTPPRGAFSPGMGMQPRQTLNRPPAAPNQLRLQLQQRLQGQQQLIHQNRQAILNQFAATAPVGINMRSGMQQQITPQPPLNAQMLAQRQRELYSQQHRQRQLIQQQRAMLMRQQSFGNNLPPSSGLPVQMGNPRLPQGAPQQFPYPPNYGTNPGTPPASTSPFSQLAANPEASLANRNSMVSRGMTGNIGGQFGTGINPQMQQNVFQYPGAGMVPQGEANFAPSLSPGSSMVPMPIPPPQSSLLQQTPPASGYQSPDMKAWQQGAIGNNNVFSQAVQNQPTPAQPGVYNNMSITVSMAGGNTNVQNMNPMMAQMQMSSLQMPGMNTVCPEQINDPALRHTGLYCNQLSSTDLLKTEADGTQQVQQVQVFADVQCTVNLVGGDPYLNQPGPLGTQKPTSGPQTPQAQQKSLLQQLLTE
Chain of Peroxisome proliferator-activated receptor gamma/Nuclear receptor coactivator 2 (P37231 whole entry): as the sequence (P37231 whole entry) above
Chain of Peroxisome proliferator-activated receptor gamma/Nuclear receptor coactivator 2 (Q15596 whole entry, further chain): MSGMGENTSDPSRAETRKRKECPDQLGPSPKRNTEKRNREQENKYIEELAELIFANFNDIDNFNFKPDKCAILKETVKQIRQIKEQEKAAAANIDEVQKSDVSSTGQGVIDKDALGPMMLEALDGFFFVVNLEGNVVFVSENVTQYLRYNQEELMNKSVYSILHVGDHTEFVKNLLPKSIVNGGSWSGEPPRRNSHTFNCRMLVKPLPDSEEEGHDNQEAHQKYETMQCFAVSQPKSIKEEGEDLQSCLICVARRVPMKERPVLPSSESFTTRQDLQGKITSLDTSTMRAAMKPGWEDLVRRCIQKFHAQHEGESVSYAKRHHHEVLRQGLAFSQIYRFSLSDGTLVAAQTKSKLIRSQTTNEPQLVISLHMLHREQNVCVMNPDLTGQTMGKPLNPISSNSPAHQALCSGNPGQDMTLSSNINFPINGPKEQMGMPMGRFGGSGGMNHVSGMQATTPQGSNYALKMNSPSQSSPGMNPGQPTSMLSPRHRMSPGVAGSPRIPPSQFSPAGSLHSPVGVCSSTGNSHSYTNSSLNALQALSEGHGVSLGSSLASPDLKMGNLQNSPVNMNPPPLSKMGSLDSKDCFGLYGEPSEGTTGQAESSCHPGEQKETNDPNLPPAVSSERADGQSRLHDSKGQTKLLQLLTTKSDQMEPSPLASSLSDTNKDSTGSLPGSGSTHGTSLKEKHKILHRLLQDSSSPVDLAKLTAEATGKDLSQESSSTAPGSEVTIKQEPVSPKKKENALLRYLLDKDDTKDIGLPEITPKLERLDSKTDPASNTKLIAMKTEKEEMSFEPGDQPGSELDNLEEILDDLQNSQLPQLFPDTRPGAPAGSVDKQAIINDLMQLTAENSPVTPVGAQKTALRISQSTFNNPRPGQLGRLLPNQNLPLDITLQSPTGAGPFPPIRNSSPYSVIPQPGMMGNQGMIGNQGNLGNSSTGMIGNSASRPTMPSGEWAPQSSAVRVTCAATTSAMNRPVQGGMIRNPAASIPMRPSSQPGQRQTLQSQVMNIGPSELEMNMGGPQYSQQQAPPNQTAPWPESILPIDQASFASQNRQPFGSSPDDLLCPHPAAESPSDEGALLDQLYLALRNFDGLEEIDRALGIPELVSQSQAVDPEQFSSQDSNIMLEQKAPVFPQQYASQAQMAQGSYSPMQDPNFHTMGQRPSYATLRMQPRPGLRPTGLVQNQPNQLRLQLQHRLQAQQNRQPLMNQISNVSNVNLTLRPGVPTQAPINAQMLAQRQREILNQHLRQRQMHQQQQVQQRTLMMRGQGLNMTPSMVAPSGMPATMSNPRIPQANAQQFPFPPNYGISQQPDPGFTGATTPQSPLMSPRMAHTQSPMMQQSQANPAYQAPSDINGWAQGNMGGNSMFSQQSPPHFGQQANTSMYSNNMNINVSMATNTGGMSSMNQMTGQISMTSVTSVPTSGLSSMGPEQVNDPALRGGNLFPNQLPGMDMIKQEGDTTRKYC
T1 sequence (P08684 whole entry): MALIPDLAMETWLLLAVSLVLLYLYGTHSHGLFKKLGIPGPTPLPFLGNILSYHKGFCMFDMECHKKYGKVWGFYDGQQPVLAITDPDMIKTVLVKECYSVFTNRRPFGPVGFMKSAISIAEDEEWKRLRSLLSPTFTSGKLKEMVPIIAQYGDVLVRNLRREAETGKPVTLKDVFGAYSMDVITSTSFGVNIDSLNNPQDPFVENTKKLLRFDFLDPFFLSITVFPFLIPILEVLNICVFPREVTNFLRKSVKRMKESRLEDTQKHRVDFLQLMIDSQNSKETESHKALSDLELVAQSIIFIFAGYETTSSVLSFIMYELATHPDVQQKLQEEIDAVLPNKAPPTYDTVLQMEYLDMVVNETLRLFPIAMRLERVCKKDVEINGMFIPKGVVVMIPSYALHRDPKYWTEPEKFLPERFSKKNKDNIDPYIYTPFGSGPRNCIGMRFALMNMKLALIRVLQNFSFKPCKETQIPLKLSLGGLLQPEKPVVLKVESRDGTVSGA
Chain of Protein Wnt-3a (P27467 whole entry): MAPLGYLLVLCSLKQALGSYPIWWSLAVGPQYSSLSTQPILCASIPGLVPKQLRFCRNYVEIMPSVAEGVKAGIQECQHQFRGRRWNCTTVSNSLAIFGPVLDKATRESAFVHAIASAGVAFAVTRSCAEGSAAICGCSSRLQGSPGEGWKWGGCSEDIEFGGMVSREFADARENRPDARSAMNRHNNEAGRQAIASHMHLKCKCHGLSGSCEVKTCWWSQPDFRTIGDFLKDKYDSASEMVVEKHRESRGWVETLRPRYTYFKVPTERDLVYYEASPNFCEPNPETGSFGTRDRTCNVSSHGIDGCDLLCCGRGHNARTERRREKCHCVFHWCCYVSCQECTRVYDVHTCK

CC(C)C[C@H]1CN=C(N(C)C)N1CCCCc1ccccc1
IC50 [1]: 11.7 µM (active)

CC(C)(C)c1ccc(-c2c(C#N)c(N)nc3c2CCCC3)s1
AC50 [2]: inconclusive | AC50 [3]: 7.08 µM (inconclusive)

O=C(c1cnc(-c2ccccc2)s1)c1ccc(Cl)cc1Cl
EC50 [4]: 16.2 µM (active) | EC50 [5]: > 150 µM (not active) | EC50 [6]: 33.7 µM (active) | AC50 [2]: inconclusive | AC50 [7]: 22.4 µM (inconclusive)

CN1CCN(c2ncc3nc(-c4ccc(Cl)cc4)c(=O)n(Cc4ccc(F)cc4)c3n2)CC1
AC50 [2]: inconclusive | AC50 [8]: 31.6 µM (inconclusive) | AC50 [7]: 39.8 µM (inconclusive)

COc1cccc(-c2cc(C(=O)O)[nH]n2)c1
IC50 [9]: > 100 µM (inactive) | IC50 [10]: > 100 µM (not active)

CCOc1cccc(C(=O)C2=C(O)C(=O)N(CCOC)C2c2ccc(C)o2)c1 (stereo not drawn)
Ki [11]: 13.5 µM (active)

COC(=O)c1c(C)[nH]c(C(=O)C(C)Sc2nnc(-c3cc(OC)c(OC)c(OC)c3)o2)c1C (stereo not drawn)
EC50 [12]: > 79.4 µM (inactive) | EC50 [13]: > 79.4 µM (not active) | EC50 [14]: > 79.4 µM (not active)

CC(=O)Nc1ccc(/C=N/Nc2nc3ccccc3[nH]2)cc1
EC50 [15]: > 150 µM (not active) | EC50 [16]: > 150 µM (inconclusive) | EC50 [17]: > 133 µM (inactive) | EC50 [18]: 5.82 µM (active) | EC50 [19]: > 150 µM (inconclusive)

NC(=O)c1cn(S(=O)(=O)c2ccc3ccccc3c2)c2ccccc12
IC50 [9]: > 100 µM (inactive) | IC50 [10]: > 100 µM (not active)

O=C(N[C@@H]1C/C=C\C[C@@H](CC(=O)N(CCO)Cc2ccccc2)C(=O)NCCOC1=O)OCC1c2ccccc2-c2ccccc21
IC50 [1]: 24.2 µM (inactive)

COC(=O)COc1ccc2c(=O)c(Oc3ccccc3)c(C)oc2c1
Ki [11]: > 66.7 µM (inactive) | IC50 [20]: 2.94 µM (active)

CCOC(=O)N1CCN(C(=O)c2ccc(CSc3ccc(Cl)cc3)cc2)CC1
IC50 [1]: 15.6 µM (active)

COc1ccc(NC(=O)CSc2c3c(nc4ccccc24)CCCC3)c(OC)c1
EC50 [12]: > 79.4 µM (inactive) | EC50 [13]: 35.4 µM (not active) | EC50 [14]: > 79.4 µM (not active)

CC(=O)c1sc(NC(=O)C(C)C)nc1C
EC50 [12]: > 79.4 µM (inactive) | AC50 [21]: inconclusive | EC50 [13]: > 26.5 µM (not active) | EC50 [14]: > 79.4 µM (not active) | AC50 [3]: 39.8 µM (inconclusive)

O=C(Nc1ccccc1)N1CCC2(CC1)CCN(C(=O)Oc1ccccc1)CC2
AC50 [2]: inconclusive

CCS(=O)(=O)N(C)[C@@H]1c2cc(C#N)ccc2OC(C)(C)[C@H]1O
AC50 [2]: 15.8 µM (inconclusive) | AC50 [22]: 15.8 µM (inconclusive)

Cc1nnc(/N=c2\ssnc2Cl)o1
IC50 [23]: 1.07 µM (active) | IC50 [24]: > 100 µM (inactive)

COc1cc(N=c2ssnc2Cl)cc(OC)c1
IC50 [23]: 17.2 µM (active) | IC50 [24]: > 100 µM (inactive)

COc1cc(OC)c(C2=NOC(C(=O)NCc3cccs3)C2)cc1Cl (stereo not drawn)
EC50 [15]: > 150 µM (not active) | EC50 [16]: 17.7 µM (inconclusive) | EC50 [17]: 108 µM (active) | EC50 [18]: 63.7 µM (active) | EC50 [19]: 32 µM (active)
